Blank lines part the entries; values can stand above or below the compound they belong to. Activity calls are given as the source filed them.
Assays:
[1] = HepG2 cell cytotoxicity, dose response, cytotoxicity control for Shn3 inhibitor project, CellTiter-Glo, cherry-picked (AID 624134); format: functional, cell-based
[2] = control 3'UTR Renilla luciferase suppression, dose response, counter-screen for Shn3 inhibitor project, cell-based, Clone20-Shn3RL, cherry-picked (AID 624133); format: functional
[3] = Shn3 3'UTR reporter inhibitors, dose response, cell-based, Clone20 osteoblasts, firefly luciferase, cherry-picked (AID 624132); format: functional;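 note: firefly luciferase luminescence from reporter carrying the Shn3 3'UTR in osteoblasts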
[4] = molecular target: Protein Wnt-3a (Mus musculus, UniProt P27467); test: Wnt3a-driven reporter signaling inhibition, dose response, selectivity assay for Gli-SUFU antagonist project, Wnt-LIGHT cells, luminescence (AID 651570); format: functional; conditions: read-out: IC50_Mean;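 note: Wnt-LIGHT reporter cells stimulated with conditioned medium from Wnt3a-producing cells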
[5] = growth suppression of PTEN-null colon cells, dose response, cell-based, HCT116 PTEN knockout (AID 1047); format: functional;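 note: HCT116 colon tumor cells with PTEN knocked out; cells exposed to compound for 60 hours before readout; potency for loss of cell viability measured by luminescence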
[6] = growth suppression of beta-catenin-knockout colon cells, dose response, cell-based, HCT116, human colon tumor (AID 1045); format: functional;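 note: HCT116 colon tumor cells with beta catenin knocked out; cells exposed to compound for 60 hours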
[7] = molecular target: T1, COUP transcription factor 2 (Homo sapiens, UniProt P24468); test: Luminescence-based cell-based high throughput dose response assay to identify inhibitors of COUP-TFII (NR2F2).; format: functional;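 note: HEK293 cells transiently cotransfected with COUP-TFII expression vector and reporter; luciferase reporter luminescence driven by COUP-TFII from the pX2-168 reporter plasmid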
T1 sequence (P24468 whole entry): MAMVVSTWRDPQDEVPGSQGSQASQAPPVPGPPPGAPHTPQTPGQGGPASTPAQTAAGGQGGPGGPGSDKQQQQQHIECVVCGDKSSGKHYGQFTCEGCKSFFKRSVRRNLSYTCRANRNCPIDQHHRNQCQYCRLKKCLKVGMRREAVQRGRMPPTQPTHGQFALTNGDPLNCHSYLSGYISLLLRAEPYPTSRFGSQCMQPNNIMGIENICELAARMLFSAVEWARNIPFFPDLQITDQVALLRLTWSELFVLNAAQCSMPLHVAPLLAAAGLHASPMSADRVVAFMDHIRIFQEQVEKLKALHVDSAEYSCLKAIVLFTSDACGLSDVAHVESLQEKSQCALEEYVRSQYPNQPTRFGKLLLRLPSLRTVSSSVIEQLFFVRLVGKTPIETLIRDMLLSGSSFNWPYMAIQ

[8] = P. falciparum Dd2 growth inhibitors, dose response, SYBR Green, cherry-picked samples (AID 1159567); format: functional, cell-based
[9] = HepG2 cell cytotoxicity, dose response, cytotoxicity control, plate reader, dry powder samples (AID 1159569); format: functional, cell-based;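 note: inhibitor potency with signal falling toward the positive control level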
[10] = P. falciparum Dd2 growth inhibitors, dose response, SYBR Green, dry powder samples (AID 1159566); format: functional, cell-based;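 note: potency for growth inhibition with lower SYBR green DNA signal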
[11] = P. falciparum 3D7-ScDHODH growth inhibitors, dose response, SYBR Green, dry powder samples (AID 1159570); format: functional, cell-based;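 note: parasite growth measured after 72 hours of compound exposure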
[12] = P. falciparum ATP4 D1247Y mutant growth inhibitors, dose response, NITD609-resistant line, SYBR Green, dry powder (AID 1159571); format: functional, cell-based;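 note: parasites synchronized at ring stage by sorbitol before testing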
[13] = molecular target: T2, Rac GTPase-activating protein 1 (Homo sapiens, UniProt Q9H0H5); test: MgcRacGAP GTPase-activating activity inhibitors, confirmation, biochemical, ADP Hunter fluorescence, primary and confirmatory (AID 624330); format: functional
T2 sequence (Q9H0H5 whole entry): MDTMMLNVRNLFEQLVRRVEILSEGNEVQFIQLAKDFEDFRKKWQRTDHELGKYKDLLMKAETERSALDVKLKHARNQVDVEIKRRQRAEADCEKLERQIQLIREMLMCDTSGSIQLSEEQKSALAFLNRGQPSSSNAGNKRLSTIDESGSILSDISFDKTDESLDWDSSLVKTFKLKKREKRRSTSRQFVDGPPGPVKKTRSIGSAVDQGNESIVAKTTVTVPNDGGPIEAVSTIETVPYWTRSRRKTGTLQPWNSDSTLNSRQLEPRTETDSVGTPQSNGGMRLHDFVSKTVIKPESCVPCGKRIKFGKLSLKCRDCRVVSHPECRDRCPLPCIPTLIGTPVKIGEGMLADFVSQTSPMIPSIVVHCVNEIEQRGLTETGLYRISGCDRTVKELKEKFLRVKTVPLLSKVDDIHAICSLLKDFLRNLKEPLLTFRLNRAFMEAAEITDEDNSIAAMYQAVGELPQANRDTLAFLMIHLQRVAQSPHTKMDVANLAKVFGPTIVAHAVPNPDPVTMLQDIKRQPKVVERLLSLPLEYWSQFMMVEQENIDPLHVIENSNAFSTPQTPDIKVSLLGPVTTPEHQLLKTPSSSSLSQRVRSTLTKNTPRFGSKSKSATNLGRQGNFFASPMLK

[14] = molecular target: T3, Oxysterols receptor LXR-beta (Homo sapiens, UniProt P55055); test: LXR agonists, Gal4 luciferase reporter, dose response, counter-screen for ssDAF-12 agonist project, cell-based, luminescence, HEK293, S. stercoralis campaign (AID 720737); format: functional; conditions: read-out: IC50 (the source's name)
T3 sequence (P55055 whole entry): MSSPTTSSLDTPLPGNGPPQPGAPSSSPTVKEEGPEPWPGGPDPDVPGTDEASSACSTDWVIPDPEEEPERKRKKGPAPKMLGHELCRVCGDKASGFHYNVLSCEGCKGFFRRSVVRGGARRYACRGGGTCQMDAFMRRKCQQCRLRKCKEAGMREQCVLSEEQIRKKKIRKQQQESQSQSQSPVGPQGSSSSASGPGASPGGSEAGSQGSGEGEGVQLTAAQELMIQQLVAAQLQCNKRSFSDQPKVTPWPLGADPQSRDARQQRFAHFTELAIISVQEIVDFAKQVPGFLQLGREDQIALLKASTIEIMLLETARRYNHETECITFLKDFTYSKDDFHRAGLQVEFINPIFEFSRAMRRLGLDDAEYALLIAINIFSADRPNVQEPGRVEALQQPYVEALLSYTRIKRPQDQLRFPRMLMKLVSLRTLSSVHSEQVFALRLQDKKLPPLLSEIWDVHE

[15] = Luminescence-based cell-based high throughput dose response assay to identify activators of the DAF-12 from the parasite S. stercoralis (ssDAF-12).; format: functional
[16] = Jurkat T cell cytotoxicity, dose response, cytotoxicity control for P. falciparum gametocyte viability project, luminescence (AID 1117277); format: functional, cell-based;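 note: potency reflects loss of cellular ATP meaning fewer viable cells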
[17] = P. falciparum late gametocyte killing, dose response, luminescence (AID 1117278); format: functional, cell-based;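 note: gametocytes exposed to compound for 24 hours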
[18] = molecular target: Mitogen-activated protein kinase 10 (Homo sapiens, UniProt P53779); test: Dose response biochemical screening assay for inhibitors of c-Jun N-Terminal Kinase 3 (JNK3). [Related pubchem assays: 746 ]
[19] = molecular target: T4, fMet-Leu-Phe receptor (Homo sapiens, UniProt P21462); test: FPR ligands, dose response (AID 519); format: functional
T4 sequence (P21462 whole entry): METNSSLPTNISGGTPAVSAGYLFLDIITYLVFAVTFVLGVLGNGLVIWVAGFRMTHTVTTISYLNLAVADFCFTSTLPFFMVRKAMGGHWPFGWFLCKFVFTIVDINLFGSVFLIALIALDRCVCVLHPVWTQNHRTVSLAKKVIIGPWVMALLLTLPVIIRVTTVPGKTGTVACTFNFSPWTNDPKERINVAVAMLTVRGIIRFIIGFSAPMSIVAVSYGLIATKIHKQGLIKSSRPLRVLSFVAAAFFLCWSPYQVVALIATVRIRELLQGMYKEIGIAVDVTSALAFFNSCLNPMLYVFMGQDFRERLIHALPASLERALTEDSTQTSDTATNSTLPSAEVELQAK

[20] = inhibitors of PGC1a acetylation in cells, dose response, cell-based, cherry-picked samples (AID 720514); format: functional;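 note: potency may reflect raised or lowered acetylation signal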
[21] = cytotoxicity in KRAS-transformed pancreatic duct cells, primary screen, cell-based, fluorescence, HTS (AID 431); format: functional; conditions: Homo sapiens;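 note: cell line used: HPDE-C7K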
[22] = molecular target: T5, Mannose-6-phosphate isomerase (Homo sapiens, UniProt P34949); test: human PMI inhibitors, high substrate, primary screen, biochemical, fluorescence intensity, high mannose 6-phosphate (AID 1220)
T5 sequence (P34949 whole entry): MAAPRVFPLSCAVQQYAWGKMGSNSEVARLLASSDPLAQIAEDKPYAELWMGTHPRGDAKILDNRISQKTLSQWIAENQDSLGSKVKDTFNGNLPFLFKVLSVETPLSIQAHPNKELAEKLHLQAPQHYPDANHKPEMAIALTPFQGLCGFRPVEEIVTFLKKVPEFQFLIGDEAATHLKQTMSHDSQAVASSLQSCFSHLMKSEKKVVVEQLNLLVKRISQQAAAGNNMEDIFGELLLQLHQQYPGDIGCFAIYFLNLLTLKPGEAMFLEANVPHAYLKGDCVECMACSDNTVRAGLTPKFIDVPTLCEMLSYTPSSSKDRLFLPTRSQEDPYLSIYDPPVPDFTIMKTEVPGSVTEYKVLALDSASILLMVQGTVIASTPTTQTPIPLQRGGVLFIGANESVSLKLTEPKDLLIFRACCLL

[23] = cytotoxicity in HPDE-C7 cells, cell-based, fluorescence, HTS (AID 430); format: functional; conditions: Homo sapiens

Chain of Protein Wnt-3a (P27467 whole entry): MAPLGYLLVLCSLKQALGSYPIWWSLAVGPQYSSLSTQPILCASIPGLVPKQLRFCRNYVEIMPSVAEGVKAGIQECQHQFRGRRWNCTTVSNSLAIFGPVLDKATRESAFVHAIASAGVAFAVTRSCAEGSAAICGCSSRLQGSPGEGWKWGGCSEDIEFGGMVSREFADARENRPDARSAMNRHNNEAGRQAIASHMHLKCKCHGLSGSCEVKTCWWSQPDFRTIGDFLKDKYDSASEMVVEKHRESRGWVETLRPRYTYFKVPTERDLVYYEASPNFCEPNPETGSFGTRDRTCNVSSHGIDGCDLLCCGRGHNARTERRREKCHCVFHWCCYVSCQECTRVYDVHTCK
Chain of Mitogen-activated protein kinase 10 (P53779 whole entry): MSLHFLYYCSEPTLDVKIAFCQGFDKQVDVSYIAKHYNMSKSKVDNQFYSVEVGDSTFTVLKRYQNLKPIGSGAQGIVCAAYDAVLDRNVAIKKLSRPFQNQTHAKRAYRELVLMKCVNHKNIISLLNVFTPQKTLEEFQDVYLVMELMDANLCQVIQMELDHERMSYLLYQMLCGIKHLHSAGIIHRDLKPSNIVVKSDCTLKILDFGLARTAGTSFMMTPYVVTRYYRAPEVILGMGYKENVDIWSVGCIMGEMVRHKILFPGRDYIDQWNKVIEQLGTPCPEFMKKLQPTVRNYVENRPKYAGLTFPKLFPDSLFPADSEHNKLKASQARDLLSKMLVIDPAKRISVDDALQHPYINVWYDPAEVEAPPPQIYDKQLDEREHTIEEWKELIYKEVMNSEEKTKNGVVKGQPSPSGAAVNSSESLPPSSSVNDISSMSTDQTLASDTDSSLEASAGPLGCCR

Compound: CCCCOC(=O)c1[nH]c2c(c1C)C(=O)CC(c1cc(OC)c(OC)c(OC)c1)C2 (stereo not given)
AC50 [1]: 62 µM (active)
AC50 [2]: 3.74 µM (active)
AC50 [3]: 1.35 µM (active)
IC50 [4]: 8.48 µM (active)
EC50 [5]: 79.5 µM (active)
EC50 [6]: 58.8 µM (active)
IC50 [7]: 7.91 µM (active)

Compound: COc1ccc2c3c([nH]c2c1)[C@H](CO)N(C(=O)Nc1ccc(F)cc1)CC31CCN(S(=O)(=O)c2cccc(F)c2)CC1
AC50 [8]: 0.883 µM (active)
AC50 [9]: 22 µM (active)
AC50 [10]: 0.751 µM (active)
AC50 [11]: 1.22 µM (active)
AC50 [12]: 0.103 µM (active)

Compound: Cc1ccc(/C=N/Nc2ccc(Cl)c(C(=O)O)c2)s1
IC50 [13]: 80.5 µM (active)
EC50 [14]: > 67.6 µM (inactive)
IC50 [15]: > 67.6 µM (inactive)

Compound: N#Cc1c(N)n(-c2ccc(O)cc2)c2nc3ccccc3nc12
IC50 [16]: > 83.4 µM (inactive)
IC50 [17]: > 109 µM (inactive)

IC50 [18]: > 31 µM (not active)
Ki [19]: > 66.7 µM (inactive)
Compound: COCCN1Cc2cccc(C(=O)NCc3ccc4c(c3)OCO4)c2C1=O

Compound: CC(C)CN1CCN(Cc2nc(C(C)C)cs2)CC1CCO (stereo not given)
IC50 [16]: > 83.3 µM (inactive)
IC50 [17]: > 109 µM (inactive)

Compound: COCC(=O)Nc1ccc(Br)cc1C
IC50 [16]: > 83.3 µM (inactive)
IC50 [17]: > 109 µM (inactive)

Compound: CC(NC1=NS(=O)(=O)c2ccccc21)C(=O)NCCCc1ccccc1 (stereo not given)
AC50 [20]: 11.4 µM (active)

Compound: Cc1ccc(-c2cc(-c3ccccc3)no2)c(O)c1
EC50 [14]: > 67.5 µM (inactive)
IC50 [15]: > 67.5 µM (inactive)

Compound: N#Cc1c(NCCCO)nc(NCc2ccccc2)c2c1CCN(Cc1ccccc1)C2
EC50 [21]: 11.9 µM (active)
IC50 [22]: > 50 µM (not active)
EC50 [23]: 19.8 µM (active)

Compound: C[C@H]1CN([C@@H](C)CO)C(=O)c2cccc(NC(=O)Nc3ccc(C(F)(F)F)cc3)c2O[C@H]1CN(C)C(=O)Nc1cccc2ccccc12
AC50 [20]: 8.85 µM (active)
